From patent US20250230193A1, “CYCLIC COMPOUND HAVING SELECTIVE KRAS INHIBITORY EFFECT ON HRAS AND NRAS” (CHUGAI SEIYAKU KABUSHIKI KAISHA, priority 2022, published 2025)

Columns and labels:
[1] = molecular target: GDP-bound NRAS wild-type protein (Homo sapiens, UniProt P01111); assay: Binding to NRAS by surface plasmon resonance (SPR), Single Cycle Kinetics; conditions: SPR; for NRAS/KRAS (ratio of KD value with respect to NRAS to KD value with respect to KRAS): GDP-bound NRAS wild-type vs GDP-bound KRAS wild-type
[2] = molecular target: GDP-bound HRAS wild-type protein (Homo sapiens, UniProt P01112); assay: Binding to HRAS by surface plasmon resonance (SPR), Single Cycle Kinetics; conditions: SPR; for HRAS/KRAS (ratio of KD value with respect to HRAS to KD value with respect to KRAS): GDP-bound HRAS wild-type vs GDP-bound KRAS wild-type
Sequence of GDP-bound HRAS wild-type protein (P01112 whole entry): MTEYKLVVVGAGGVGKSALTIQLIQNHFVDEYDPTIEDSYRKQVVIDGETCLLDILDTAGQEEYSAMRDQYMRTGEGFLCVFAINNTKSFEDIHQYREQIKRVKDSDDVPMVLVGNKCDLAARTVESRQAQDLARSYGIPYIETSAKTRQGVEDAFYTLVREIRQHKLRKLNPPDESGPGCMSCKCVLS

Sequence of GDP-bound NRAS wild-type protein (P01111 whole entry): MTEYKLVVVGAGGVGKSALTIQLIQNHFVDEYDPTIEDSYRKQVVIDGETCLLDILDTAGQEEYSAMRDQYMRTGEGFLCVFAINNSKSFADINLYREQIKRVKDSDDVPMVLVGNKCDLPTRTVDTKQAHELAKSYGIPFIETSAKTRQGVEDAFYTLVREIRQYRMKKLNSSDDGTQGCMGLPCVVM

SMILES	NRAS/KRAS (ratio of KD value with respect to NRAS to KD value with respect to KRAS) [1]	HRAS/KRAS (ratio of KD value with respect to HRAS to KD value with respect to KRAS) [2]	NRAS/KRAS (ratio of KD value with respect to NRAS to KD value with respect to KRAS) ([1]; KD ratio)	HRAS/KRAS (ratio of KD value with respect to HRAS to KD value with respect to KRAS) ([2]; KD ratio)	other results
CCC[C@H]1C(=O)N[C@@H](CC(C)C)C(=O)N(CCOC)CC(=O)N(C)[C@H]2C/C=C\CCN(C2=O)[C@@H](Cc2ccc(C)cc2)C(=O)N(C)CC(=O)N[C@@H](CCc2cc(F)c(C(F)(F)F)c(F)c2)C(=O)N2C[C@H](OCC)C[C@H]2C(=O)NC2(CC(C)(C)C2)C(=O)N(C)[C@@H](C2CCCC2)C(=O)N(C)[C@H](C(=O)N(C)C)CC(=O)N1C [PP2520]	A (a compound having 10 or more and less than 20 is denoted as A)	A (a compound having 10 or more and less than 20 is denoted as A)	–	–	–
CCO[C@@H]1C[C@H]2C(=O)NC3(CCC3)C(=O)N(C)[C@@H](C3CCCC3)C(=O)N(C)[C@H](C(=O)N3CCOCC3)CC(=O)N(C)[C@@H](Cc3ccc(Cl)c(Cl)c3)C(=O)N[C@@H]([C@@H](C)CC)C(=O)N(C)CC(=O)N(C)[C@H]3CCCCCN(C3=O)[C@@H](Cc3ccc(C(F)(F)F)cc3)C(=O)N(C)CC(=O)N[C@@H](CCc3cc(F)c(C(F)(F)F)c(F)c3)C(=O)N2C1 [PP1168]	–	–	A (a compound having 10 or more and less than 20 is denoted as A)	A (a compound having 10 or more and less than 20 is denoted as A)	–
CC[C@H](C)[C@@H]1NC(=O)[C@H](CC)N(C)C(=O)C[C@@H](C(=O)N2CCOCC2)N(C)C(=O)[C@H](C2CCCC2)N(C)C(=O)C2(CCCC2)NC(=O)[C@@H]2CCCN2C(=O)[C@H](CCc2cc(F)c(C(F)(F)F)c(F)c2)NC(=O)CN(C)C(=O)[C@H](Cc2ccc(C(F)(F)F)cc2)N2CCCC[C@@H](C2=O)N(C)C(=O)CN(C)C1=O [PP0550]	–	–	–	–	NRAS/KRAS (ratio of KD value with respect to GDP-bound NRAS wild-type protein to KD value with respect to KRAS) ([1]; KD ratio NRAS/KRAS): B (a compound having 3 or more and less than 10 is denoted as B); HRAS/KRAS (ratio of KD value with respect to GDP-bound HRAS wild-type protein to KD value with respect to KRAS) ([2]; KD ratio HRAS/KRAS): B (a compound having 3 or more and less than 10 is denoted as B)
CCCOC[C@H]1C(=O)N[C@@H]([C@@H](C)CC)C(=O)N(C2CC2)CC(=O)N(C)[C@H]2C/C=C\CCN(C2=O)[C@@H](Cc2ccc(C)cc2)C(=O)N(C)CC(=O)N[C@@H](CCc2ccc(C(F)(F)F)c(OC)c2)C(=O)N2C[C@@H](C)C[C@H]2C(=O)N(C)C2(CCC2)C(=O)N(C)[C@@H](C2CCCC2)C(=O)N(C)[C@H](C(=O)N(C)C)CC(=O)N1C [PP2367]	A (a compound having 10 or more and less than 20 is denoted as A)	B (a compound having 3 or more and less than 10 is denoted as B)	–	–	–
CC[C@H](C)[C@@H]1NC(=O)[C@H](CC(C)C)N(C)C(=O)C[C@@H](C(=O)N2CCOCC2)N(C)C(=O)[C@H](C2CCCC2)N(C)C(=O)C2(CCC2)NC(=O)[C@@H]2CCCN2C(=O)[C@H](CCc2ccc(C(F)(F)F)c(Cl)c2)NC(=O)CN(C)C(=O)[C@H](Cc2ccc(F)cc2)N2CCCCC[C@@H](C2=O)N(C)C(=O)CN(C)C1=O [PP0967]	–	–	B (a compound having 3 or more and less than 10 is denoted as B)	B (a compound having 3 or more and less than 10 is denoted as B)	–
CCO[C@@H]1C[C@H]2C(=O)NC3(CCC3)C(=O)N(C)[C@@H](C3CCCC3)C(=O)N(C)[C@H](C(=O)N3CCC3)CC(=O)N(C)[C@@H](CC)C(=O)N[C@@H]([C@@H](C)CC)C(=O)N(C)CC(=O)N(C)[C@H]3C/C=C\CCN(C3=O)[C@@H](Cc3ccc(C(F)(F)F)cc3)C(=O)N(C)CC(=O)N[C@@H](CCc3cc(F)c(C(F)(F)F)c(F)c3)C(=O)N2C1 [PP1091]	–	–	A (a compound having 10 or more and less than 20 is denoted as A)	B (a compound having 3 or more and less than 10 is denoted as B)	–
CCC[C@@H]1C[C@H]2C(=O)NC3(CC(C)(C)C3)C(=O)N(C)[C@@H](C3CCCC3)C(=O)N(C)[C@H](C(=O)N(C)C)CC(=O)N(C)[C@@H](COC)C(=O)N[C@@H]([C@@H](C)CC)C(=O)N(C)CC(=O)N(C)[C@H]3C/C=C\CCN(C3=O)[C@@H](Cc3ccc(C(F)(F)F)cc3)C(=O)N(C)CC(=O)N[C@@H](CCc3ccc(C(F)(F)F)c(Cl)c3)C(=O)N2C1 [PP2275]	A (a compound having 10 or more and less than 20 is denoted as A)	A (a compound having 10 or more and less than 20 is denoted as A)	–	–	–
